# Reference: patent publication US20170204102A1, “AGRICULTURAL AGENT CONTAINING 2,5-DIKETOPIPERAZINE DERIVATIVE AS ACTIVE INGREDIENT” (NAPRO BIOTEC INC., priority 2010, published 2017)
# Where two headings read alike, the source gives them in different places.
# Tests used:
# cucumber leaf = assay: Promotion of growth of cucumber leaf; details: Cucumis sativus, read-out: Width of leaf
# Description: Plant leaves were tested with test compounds by drenching. […] 3-5 days later, the width of the leaves was measured again to compare the growth of the leaves relative to the control group.
# [1] = test system: Pectobacterium carotovorum SCC1; assay: Inhibition of soft rot lesion in tobacco leaf; format: in vivo
# [2] = test system: Pectobacterium carotovorum SCC1; assay: Inhibition of soft rot lesion in cucumber leaf; format: in vivo
# [3] = test system: Colletotrichum orbiculare; format: in vivo; details: cucumber; for Number of anthractic lesions in first leaf: control 12.5; for Number of anthractic lesions in second leaf: control 96.8
# Colletotrichum acutatum = assay: Inhibition of anthracnose in red pepper fruit after soil drench; details: control 50
# [4] = test system: Pectobacterium carotovorum SCC1; assay: Inhibition of naturally occurring soft rot in Chinese cabbage hydrocultured in summer; format: in vivo; details: 20 ppm; sprayed; examined 1 week later; control 58
# Text: After spraying test compounds to hydrocultured Chinese cabbage, naturally occurring soft rot was examined 1 week later.
# [5] = 100 ppm, Table 5, control 73.75
smiles,measurement,setting,value
"CC(O)C1NC(=O)C2CCCN2C1=O (stereo not drawn) [Compound No. 33, 3-(1-hydroxyethyl)hexahydropyrrolo[1,2-a]pyrazin-1,4-dione]",response vs control in vivo at 1 ppm,cucumber leaf,109%
same,response vs control in vivo at 10 ppm,cucumber leaf,117%
same,response vs control in vivo at 100 ppm,cucumber leaf,110%
NC(=O)CC[C@H]1NC(=O)[C@@H]2CCCN2C1=O [Compound No. 59],Area of lesion,"[1]; 1 ppm, Table 5, control 73.75",12.5%
same,Area of lesion,"[1]; 10 ppm, Table 5, control 73.75",32.5%
same,Area of lesion,[1]; [5],47.5%
same,Area of lesion,"[2]; 1 ppm, Table 8, control 100",30%
same,Area of lesion,"[2]; 10 ppm, Table 8, control 100",32.5%
same,Area of lesion,"[2]; 100 ppm, Table 8, control 100",80%
O=C1N[C@H](Cc2ccccc2)C(=O)N2CCC[C@@H]12 [Compound No. 58],Area of lesion,"[1]; 1 ppm, Table 5, control 73.75",35%
same,Area of lesion,"[1]; 10 ppm, Table 5, control 73.75",25%
same,Area of lesion,[1]; [5],7.5%
same,Area of lesion,"[2]; 1 ppm, Table 8, control 100",75%
same,Area of lesion,"[2]; 10 ppm, Table 8, control 100",57.5%
same,Area of lesion,"[2]; 100 ppm, Table 8, control 100",80%
CC(O)C1NC(=O)C2CCCN2C1=O (stereo not drawn) [Compound No. 56],Area of lesion,"[1]; 1 ppm, Table 5, control 73.75",7.5%
same,Area of lesion,"[1]; 10 ppm, Table 5, control 73.75",10%
same,Area of lesion,[1]; [5],10%
same,Area of lesion,"[2]; 1 ppm, Table 8, control 100",5%
same,Area of lesion,"[2]; 10 ppm, Table 8, control 100",80%
same,Area of lesion,"[2]; 100 ppm, Table 8, control 100",70%
CSCC[C@H]1NC(=O)[C@@H]2CCCN2C1=O [Compound No. 57],Area of lesion,"[1]; 1 ppm, Table 5, control 73.75",10%
same,Area of lesion,"[1]; 10 ppm, Table 5, control 73.75",10%
same,Area of lesion,[1]; [5],12.5%
same,Area of lesion,"[2]; 1 ppm, Table 8, control 100",70%
same,Area of lesion,"[2]; 10 ppm, Table 8, control 100",72.5%
same,Area of lesion,"[2]; 100 ppm, Table 8, control 100",60%
CCC(C)C1NC(=O)C2CCCN2C1=O (stereo not drawn) [Compound No. 67],Area of lesion,"[1]; 1 ppm, Table 5, control 73.75",25%
same,Area of lesion,"[1]; 10 ppm, Table 5, control 73.75",35%
same,Area of lesion,[1]; [5],40%
CC(C)C[C@H]1NC(=O)[C@H]2CCCN2C1=O [Compound No. 61],Area of lesion,"[1]; 1 ppm, Table 5, control 73.75",10%
same,Area of lesion,"[1]; 10 ppm, Table 5, control 73.75",10%
same,Area of lesion,[1]; [5],17.5%
same,Area of lesion,"[2]; 1 ppm, Table 8, control 100",5%
same,Area of lesion,"[2]; 10 ppm, Table 8, control 100",70%
same,Area of lesion,"[2]; 100 ppm, Table 8, control 100",75%
"CC1NC(=O)C2CCCN2C1=O (stereo not drawn) [Compound No. 25, 3-methylhexahydropyrrolo[1,2-a]pyrazin-1,4-dione]",Number of anthractic lesions in first leaf,[3]; 0.1 ppm,3.8
same,Number of anthractic lesions in second leaf,[3]; 0.1 ppm,37.0
same,Number of anthractic lesions in first leaf,[3]; 1 ppm,1.3
same,Number of anthractic lesions in second leaf,[3]; 1 ppm,46.0
same,Number of anthractic lesions in first leaf,[3]; 10 ppm,1.0
same,Number of anthractic lesions in second leaf,[3]; 10 ppm,22.5
same,Number of anthractic lesions in first leaf,[3]; 100 ppm,2.0
same,Number of anthractic lesions in second leaf,[3]; 100 ppm,27.8
same,Appearance of anthracnose,Colletotrichum acutatum; 1 ppm,0%
same,Appearance of anthracnose,Colletotrichum acutatum; 10 ppm,25%
same,Appearance of anthracnose,Colletotrichum acutatum; 100 ppm,25%
same,Appearance of soft rot,[4],19%
same,Area of lesion,"[1]; 1 ppm, Table 4, control 100",15%
same,Area of lesion,"[1]; 10 ppm, Table 4, control 100",12.5%
same,Area of lesion,"[1]; 100 ppm, Table 4, control 100",0%
same,response vs control in vivo at 1 ppm,cucumber leaf,121%
same,response vs control in vivo at 10 ppm,cucumber leaf,119%
same,response vs control in vivo at 100 ppm,cucumber leaf,123%
same,Area of lesion,"[2]; 1 ppm, Table 7, control 100",78%
same,Area of lesion,"[2]; 10 ppm, Table 7, control 100",73%
same,Area of lesion,"[2]; 100 ppm, Table 7, control 100",85%
O=C1N[C@H](Cc2ccccc2)C(=O)N2CCC[C@H]12 [Compound No. 63],Area of lesion,"[1]; 1 ppm, Table 5, control 73.75",15%
same,Area of lesion,"[1]; 10 ppm, Table 5, control 73.75",22.5%
same,Area of lesion,[1]; [5],65%
same,Area of lesion,"[2]; 1 ppm, Table 8, control 100",82.5%
same,Area of lesion,"[2]; 10 ppm, Table 8, control 100",42.5%
same,Area of lesion,"[2]; 100 ppm, Table 8, control 100",50%
"CC(C)CC1NC(=O)C(C(C)O)NC1=O (stereo not drawn) [Compound No. 3, 3-(1-hydroxyethyl)-6-(2-methylpropyl)-2,5-diketopiperazine]",Area of lesion,"[1]; 1 ppm, Table 3, control 87.5",20%
same,Area of lesion,"[1]; 10 ppm, Table 3, control 87.5",10%
same,Area of lesion,"[1]; 100 ppm, Table 3, control 87.5",0%
same,Area of lesion,"[2]; 1 ppm, Table 6, control 100",45%
same,Area of lesion,"[2]; 10 ppm, Table 6, control 100",45%
same,Area of lesion,"[2]; 100 ppm, Table 6, control 100",42.5%
O=C1N[C@H](Cc2ccc(O)cc2)C(=O)N2CCC[C@H]12 [Compound No. 64],Area of lesion,"[1]; 1 ppm, Table 5, control 73.75",55%
same,Area of lesion,"[1]; 10 ppm, Table 5, control 73.75",37.5%
same,Area of lesion,[1]; [5],60%
same,Area of lesion,"[2]; 1 ppm, Table 8, control 100",50%
same,Area of lesion,"[2]; 10 ppm, Table 8, control 100",55%
same,Area of lesion,"[2]; 100 ppm, Table 8, control 100",65%
CC(O)C1NC(=O)C2CCCN2C1=O (stereo not drawn) [Compound No. 66],Area of lesion,"[1]; 1 ppm, Table 5, control 73.75",35%
same,Area of lesion,"[1]; 10 ppm, Table 5, control 73.75",37.5%
same,Area of lesion,[1]; [5],37.5%
"O=C1NC(CO)C(=O)N2CCCC12 (stereo not drawn) [Compound No. 32, 3-hydroxymethylhexahydropyrrolo[1,2-a]pyrazin-1,4-dione]",response vs control in vivo at 1 ppm,cucumber leaf,98.7%
same,response vs control in vivo at 10 ppm,cucumber leaf,124%
same,response vs control in vivo at 100 ppm,cucumber leaf,112%
